Reference: paper PMC7226045, “Ensartinib (X-396) Effectively Modulates Pharmacokinetic Resistance Mediated by ABCB1 and ABCG2 Drug Efflux Transporters and CYP3A4 Biotransformation Enzyme” (Cancers, 2020)
pIC50: −log10 of the molar value.

Experiments:
[1] = target: T1, ABCC1 (Homo sapiens, UniProt P33527); assay: MDCKII monolayer transport assay, MDCKII-ABCC1; assay type: in vitro ADME; details: dog, 1 µM ensartinib, read-out: transport ratio (r), BA/AB
T1 construct: expressed in transfected cells; host or cells: MDCKII-ABCC1 (from Dr. Alfred Schinkel, The Netherlands Cancer Institute)
T1 sequence (P33527 whole entry): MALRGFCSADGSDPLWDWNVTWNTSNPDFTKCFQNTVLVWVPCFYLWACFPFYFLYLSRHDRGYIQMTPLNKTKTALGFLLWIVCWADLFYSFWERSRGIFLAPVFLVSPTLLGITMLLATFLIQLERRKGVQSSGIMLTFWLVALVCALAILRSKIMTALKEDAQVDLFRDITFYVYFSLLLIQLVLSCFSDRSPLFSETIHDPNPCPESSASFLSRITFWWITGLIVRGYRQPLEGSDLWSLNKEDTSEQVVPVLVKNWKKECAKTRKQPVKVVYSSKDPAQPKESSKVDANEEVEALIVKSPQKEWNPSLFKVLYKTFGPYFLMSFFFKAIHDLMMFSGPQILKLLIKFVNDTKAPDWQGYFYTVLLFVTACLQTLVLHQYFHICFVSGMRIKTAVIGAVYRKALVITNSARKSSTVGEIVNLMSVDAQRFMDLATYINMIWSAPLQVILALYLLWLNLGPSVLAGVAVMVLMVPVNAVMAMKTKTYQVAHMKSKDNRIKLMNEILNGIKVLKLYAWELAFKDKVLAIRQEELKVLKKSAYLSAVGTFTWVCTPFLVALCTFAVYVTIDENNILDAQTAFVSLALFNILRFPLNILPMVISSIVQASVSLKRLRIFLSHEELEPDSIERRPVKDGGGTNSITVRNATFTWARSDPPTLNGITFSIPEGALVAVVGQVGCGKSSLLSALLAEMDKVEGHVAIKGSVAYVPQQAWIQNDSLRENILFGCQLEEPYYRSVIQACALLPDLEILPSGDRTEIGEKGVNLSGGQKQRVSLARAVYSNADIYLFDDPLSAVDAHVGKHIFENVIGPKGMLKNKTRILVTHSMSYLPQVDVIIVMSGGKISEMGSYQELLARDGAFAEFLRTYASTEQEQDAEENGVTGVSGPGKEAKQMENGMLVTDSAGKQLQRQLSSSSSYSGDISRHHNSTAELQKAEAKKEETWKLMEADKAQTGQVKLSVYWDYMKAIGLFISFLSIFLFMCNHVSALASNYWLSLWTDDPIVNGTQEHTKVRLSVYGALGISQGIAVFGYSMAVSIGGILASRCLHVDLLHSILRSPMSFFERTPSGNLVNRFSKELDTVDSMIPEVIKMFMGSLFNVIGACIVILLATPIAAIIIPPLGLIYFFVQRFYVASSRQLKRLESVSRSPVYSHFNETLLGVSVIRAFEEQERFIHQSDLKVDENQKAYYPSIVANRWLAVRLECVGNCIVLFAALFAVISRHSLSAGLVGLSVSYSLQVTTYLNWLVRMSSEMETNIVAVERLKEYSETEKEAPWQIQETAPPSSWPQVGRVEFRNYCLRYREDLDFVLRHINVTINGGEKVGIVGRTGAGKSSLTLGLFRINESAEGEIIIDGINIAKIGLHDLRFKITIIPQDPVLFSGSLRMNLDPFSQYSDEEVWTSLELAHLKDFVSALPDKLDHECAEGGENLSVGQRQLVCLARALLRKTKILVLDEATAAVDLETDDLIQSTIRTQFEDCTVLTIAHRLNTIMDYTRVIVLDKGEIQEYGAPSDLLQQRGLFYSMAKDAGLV
Procedure: (§1) Transport assays were performed on microporous polycarbonate membrane filters (3 µm pore size, 24 mm diameter, Transwell 3414; Costar, Corning, NY, USA) using MDCKII parental as well as ABCB1-, ABCG2-, and ABCC1-overexpressing MDCKII cells. The cells were seeded at a density of 1.5 × 10^6 cells per insert and cultured to full confluence for 7 days with media exchanges on the second and fourth days. Before the start of the transport experiments, inserts were washed with 1 × PBS on both the apical and basal sides. The cells were then preincubated in Opti-MEM with or without model inhibitors (1 µM LY335979, 1 µM Ko143, or 25 µM MK-571). […] Ensartinib levels in samples were measured by UHPLC-MS/MS (see below). […]
(§2) Samples from the monolayer transport assays (10 µL) were mixed with 100 µL of acetonitrile and 100 µL of methanol, vortexed for 15 min, and centrifuged at 14,500 rpm for 3 min. […] The MS source parameters were set to the following: drying gas, 320 °C, flow rate 10 l/min; sheath gas, 400 °C at 12 l/min; nebulizer pressure 25 psi; capillary voltage 4000 V; nozzle voltage 0 V. Transitions of [M+H]^+ ions were detected using a dwell time of 150 ms, a cell acceleration of 4 V, and fragmentor voltages of 137 V for 547→357, 257 and 120 transitions (corresponding to collision energies of 16, 32, and 56 V).

[2] = tested on: T2, ABCB1; assay: ABCB1 ATPase assay (ABCB1-Sf9 membrane fraction); assay type: biochemical; details: ABCB1-Sf9 membranes
T2 construct: purchased Solvo Biotechnology SB MDR1/P-gp; host or cells: Sf9 cell membranes
Procedure: The ABCB1 ATPase assay was performed with minor modifications as described previously. The ATPase activitity was determined using ABCB1 […] ATPase Kit according to the manufacturer’s instructions. Sf9 cell membranes (4 µg protein per well) were mixed with various concentrations of ensartinib. The reaction mixture was then incubated for 10 min at 37 °C in the presence or absence of 1.2 mM sodium orthovanadate. The ATPase reactions were started by the addition of 10 mM ATP magnesium salt and stopped 10 min later. After 30 min incubation, absorbance was measured at 590 nm using the microplate reader (Infinite M200, Tecan, Salzburg, Austria). Phosphate standards were present in each plate; verapamil was used as positive control for ABCB1 stimulation.

[3] = MDCKII monolayer transport assay, MDCKII-par; assay type: in vitro ADME, canine; details: dog, MDCK, 1 µM ensartinib, read-out: transport ratio (r), BA/AB
Procedure: as §1, §2

[4] = target: T3, ABCG2 (Homo sapiens, UniProt Q9UNQ0); assay: mitoxantrone accumulation assay (flow cytometry) in MDCKII-ABCG2 cells; assay type: cell-based; details: 1 µM mitoxantrone, 1 h, read-out: IC50, inhibition of ABCG2 (mitoxantrone accumulation)
T3 construct: expressed in transfected cells; host or cells: MDCKII-ABCG2 (from Dr. Alfred Schinkel, The Netherlands Cancer Institute)
T3 sequence (Q9UNQ0 1-655): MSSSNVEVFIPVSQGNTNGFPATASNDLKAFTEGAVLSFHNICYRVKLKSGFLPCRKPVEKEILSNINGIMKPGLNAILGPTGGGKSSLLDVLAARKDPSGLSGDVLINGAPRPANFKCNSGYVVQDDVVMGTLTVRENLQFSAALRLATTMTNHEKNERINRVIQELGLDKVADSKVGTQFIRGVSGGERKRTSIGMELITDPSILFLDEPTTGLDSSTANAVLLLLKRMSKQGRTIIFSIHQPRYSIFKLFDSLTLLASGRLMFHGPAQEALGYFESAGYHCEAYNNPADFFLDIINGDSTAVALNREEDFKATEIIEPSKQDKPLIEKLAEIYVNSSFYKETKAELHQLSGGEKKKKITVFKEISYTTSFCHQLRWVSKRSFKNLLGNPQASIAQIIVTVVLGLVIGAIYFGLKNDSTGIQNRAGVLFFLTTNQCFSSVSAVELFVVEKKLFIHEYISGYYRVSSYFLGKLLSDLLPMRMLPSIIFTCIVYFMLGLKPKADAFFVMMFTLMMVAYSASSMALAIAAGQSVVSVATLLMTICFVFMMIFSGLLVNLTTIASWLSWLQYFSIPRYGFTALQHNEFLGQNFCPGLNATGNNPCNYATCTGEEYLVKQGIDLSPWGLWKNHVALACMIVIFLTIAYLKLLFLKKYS
Procedure: The flow-cytometric inhibitory assay with daunorubicin and mitoxantrone was performed with minor modifications as described previously. MDCKII-par, MDCKII-ABCB1, MDCKII-ABCG2, and MDCKII-ABCC1 cell lines were seeded at densities of 22.0 × 10^4, 15.0 × 10^4, 25.0 × 10^4, and 22.0 × 10^4 cells/well, respectively, on a 12-well plate and then incubated for 24 h to reach approximately 70–80% confluence. Further steps including cell washing, the preparation of drug/model inhibitor dilutions, and their addition to cells were performed as described above. After the 10 min pre-incubation period, 2 µM daunorubicin (a substrate of ABCB1/ABCC1) or 1 µM mitoxantrone (ABCG2 substrate) were promptly added to all wells other than those containing background samples, then the plate was incubated for 1 h under standard conditions. The plates were subsequently placed on ice, the cells were washed twice with ice-cold 1× PBS, and 10× trypsin without phenol red was added. After complete trypsinization, the cells were vigorously resuspended in ice-cold 1× PBS containing 2% FBS. Samples were then transferred into test-tubes and kept on ice until their fluorescence could be measured using a flow cytometer (BD FACSCanto II, Allschwil, Switzerland). The excitation/emission wavelengths for daunorubicin and mitoxantrone were 490/565 and 640/670 nm, respectively.

- efflux ratio at 4 h, 1 µM [1]: 1.29
- effect on baseline vanadate-sensitive ATPase activity of ABCB1 ([2]; activation experiment): significantly increased
- effect on verapamil-stimulated ATPase activity of ABCB1 ([2]; inhibition experiment): significantly decreased
- efflux ratio at 4 h, 1 µM [3]: 1.01
Structure (SMILES): C[C@@H]1CN(C(=O)c2ccc(NC(=O)c3cc(O[C@H](C)c4c(Cl)ccc(F)c4Cl)c(N)nn3)cc2)C[C@H](C)N1 [ensartinib, Ensartinib]
- pIC50 [4]: 4.55
